Source: paper PMC9022596, “Convergent Evolution of Antibiotic Tolerance in Patients with Persistent Methicillin-Resistant Staphylococcus aureus Bacteremia” (Infection and Immunity, 2022)
Values joined by “and” are separate entries in the source; they are usually repeats but may differ in a detail not shown here. Equal values may be shown once.

Columns and labels:
Assay in all cases: microbe, parasite or virus in culture
S. aureus ATCC 29213 = test system: T1, S. aureus ATCC 29213; design: species or system Staphylococcus aureus clinical blood isolates and ATCC 29213; Broth microdilution MIC in cation-adjusted Mueller-Hinton broth with 50 ug/mL CaCl2, EUCAST reading, 37 C; conditions: Staphylococcus aureus, ATCC29213, 16 h; replicate MIC, MHB + 50 ug/mL CaCl2
T1 construct: ATCC 29213
Procedure: (§1) MICs were measured in cation-adjusted Mueller-Hinton broth (MHB) supplemented with 50 μg/mL CaCl2 (MHB-Ca^2+) via broth microdilution in 96-well plates with an inoculum of ∼5 × 10^5 CFU per mL. Antibiotic test concentrations ranged from 0.0625 μg/mL to 32 μg/mL by 2-fold dilutions. Plates were incubated at 37°C for 16 h without shaking, and results were interpreted in accordance with European Committee on Antimicrobial Susceptibility Testing reading guidelines ([72]). S. aureus ATCC 29213 was used as a quality-control strain.

[1] = test system: T2, Staphylococcus aureus PB0101; design: species or system Staphylococcus aureus clinical blood isolates and ATCC 29213; Broth microdilution MIC in cation-adjusted Mueller-Hinton broth with 50 ug/mL CaCl2, EUCAST reading, 37 C; conditions: PB0101, 16 h, replicate MIC, MHB + 50 ug/mL CaCl2
T2 construct: PB0101
Procedure: as §1

[2] = test system: T3, Staphylococcus aureus PB0102; design: species or system Staphylococcus aureus clinical blood isolates and ATCC 29213; Broth microdilution MIC in cation-adjusted Mueller-Hinton broth with 50 ug/mL CaCl2, EUCAST reading, 37 C; conditions: PB0102, 16 h, replicate MIC, MHB + 50 ug/mL CaCl2
T3 construct: PB0102
Procedure: as §1

[3] = test system: T4, Staphylococcus aureus PB0409; design: species or system Staphylococcus aureus clinical blood isolates and ATCC 29213; Broth microdilution MIC in cation-adjusted Mueller-Hinton broth with 50 ug/mL CaCl2, EUCAST reading, 37 C; conditions: PB0409, 16 h, replicate MIC, MHB + 50 ug/mL CaCl2
T4 construct: PB0409
Procedure: as §1

[4] = test system: T5, Staphylococcus aureus PB0411; design: species or system Staphylococcus aureus clinical blood isolates and ATCC 29213; Broth microdilution MIC in cation-adjusted Mueller-Hinton broth with 50 ug/mL CaCl2, EUCAST reading, 37 C; conditions: PB0411, 16 h, replicate MIC, MHB + 50 ug/mL CaCl2
T5 construct: PB0411
Procedure: as §1

[5] = test system: T6, Staphylococcus aureus PB0603; design: species or system Staphylococcus aureus clinical blood isolates and ATCC 29213; Broth microdilution MIC in cation-adjusted Mueller-Hinton broth with 50 ug/mL CaCl2, EUCAST reading, 37 C; conditions: PB0603, 16 h, replicate MIC, MHB + 50 ug/mL CaCl2
T6 construct: PB0603
Procedure: as §1

[6] = test system: T7, Staphylococcus aureus PB0610; design: species or system Staphylococcus aureus clinical blood isolates and ATCC 29213; Broth microdilution MIC in cation-adjusted Mueller-Hinton broth with 50 ug/mL CaCl2, EUCAST reading, 37 C; conditions: PB0610, 16 h, replicate MIC, MHB + 50 ug/mL CaCl2
T7 construct: PB0610
Procedure: as §1

[7] = test system: T8, Staphylococcus aureus PB0906; design: species or system Staphylococcus aureus clinical blood isolates and ATCC 29213; Broth microdilution MIC in cation-adjusted Mueller-Hinton broth with 50 ug/mL CaCl2, EUCAST reading, 37 C; conditions: PB0906, 16 h, replicate MIC, MHB + 50 ug/mL CaCl2
T8 construct: PB0906
Procedure: as §1

[8] = test system: T9, Staphylococcus aureus PB1101; design: species or system Staphylococcus aureus clinical blood isolates and ATCC 29213; Broth microdilution MIC in cation-adjusted Mueller-Hinton broth with 50 ug/mL CaCl2, EUCAST reading, 37 C; conditions: PB1101, 16 h, replicate MIC, MHB + 50 ug/mL CaCl2
T9 construct: PB1101
Procedure: as §1

[9] = test system: T10, Staphylococcus aureus PB1511; design: species or system Staphylococcus aureus clinical blood isolates and ATCC 29213; Broth microdilution MIC in cation-adjusted Mueller-Hinton broth with 50 ug/mL CaCl2, EUCAST reading, 37 C; conditions: PB1511, 16 h, replicate MIC, MHB + 50 ug/mL CaCl2
T10 construct: PB1511
Procedure: as §1

[10] = test system: T11, Staphylococcus aureus PB1512; design: species or system Staphylococcus aureus clinical blood isolates and ATCC 29213; Broth microdilution MIC in cation-adjusted Mueller-Hinton broth with 50 ug/mL CaCl2, EUCAST reading, 37 C; conditions: PB1512, 16 h, replicate MIC, MHB + 50 ug/mL CaCl2
T11 construct: PB1512
Procedure: as §1

[11] = test system: T12, Staphylococcus aureus PB0805; design: Broth microdilution MIC in cation-adjusted MHB-Ca2+, growth inhibition per EUCAST reading; conditions: PB0805, 16 h
T12 construct: PB0805
Procedure: (§2) MICs were measured in cation-adjusted Mueller-Hinton broth (MHB) supplemented with 50 μg/mL CaCl2 (MHB-Ca^2+) via broth microdilution in 96-well plates with an inoculum of ∼5 × 10^5 CFU per mL. Antibiotic test concentrations ranged from 0.0625 μg/mL to 32 μg/mL by 2-fold dilutions. Plates were incubated at 37°C for 16 h without shaking, and results were interpreted in accordance with European Committee on Antimicrobial Susceptibility Testing reading guidelines ([72]). S. aureus ATCC 29213 was used as a quality-control strain. TCA cycle defects have been shown previously to cause antibiotic tolerance in laboratory strains of methicillin-sensitive S. aureus (MSSA) ([13], [16]). […] To test this hypothesis, we complemented three of the clinical isolates harboring loss-of-function citZ mutations with either wild-type citZ (pOS1-citZ) or empty vector (pOS1) and then measured bacterial survival through time after exposure to ceftaroline, daptomycin, vancomycin, or the combination of daptomycin plus ceftaroline (Fig. 3). These antibiotics were chosen for their clinical relevance in the treatment of severe MRSA infection.

[12] = test system: T13, Staphylococcus aureus PB0903; design: Broth microdilution MIC in cation-adjusted MHB-Ca2+, growth inhibition per EUCAST reading; conditions: PB0903, 16 h
T13 construct: PB0903
Procedure: as §2

Structure (SMILES) | MIC (S. aureus ATCC 29213) | MIC [1] | MIC [2] | MIC [3] | MIC [4] | MIC [5] | MIC [6] | MIC [7] | MIC [8] | MIC [9] | MIC [10] | MIC ([11]; replicate 1) | MIC ([11]; replicate 2) | MIC ([12]; replicate 1) | MIC ([12]; replicate 2)
CCO/N=C(\C(=O)N[C@@H]1C(=O)N2C(C(=O)[O-])=C(Sc3nc(-c4cc[n+](C)cc4)cs3)CS[C@H]12)c1nsc(N)n1 [Ceftaroline] | 0.25 µg/mL | 0.5 µg/mL | 0.5 µg/mL | 0.5 µg/mL | 0.5 µg/mL | 0.25 µg/mL | 0.25 µg/mL | 0.5 µg/mL | 0.5 µg/mL | 0.5 µg/mL | 0.5 µg/mL | 0.5 µg/mL | 0.5 µg/mL | 0.5 µg/mL | 0.5 µg/mL
CCCCCCCCCC(=O)N[C@@H](Cc1c[nH]c2ccccc12)C(=O)N[C@H](CC(N)=O)C(=O)N[C@@H](CC(=O)O)C(=O)N[C@@H]1C(=O)NCC(=O)N[C@@H](CCCN)C(=O)N[C@@H](CC(=O)O)C(=O)N[C@H](C)C(=O)N[C@@H](CC(=O)O)C(=O)NCC(=O)N[C@H](CO)C(=O)N[C@@H]([C@H](C)CC(=O)O)C(=O)N[C@@H](CC(=O)c2ccccc2N)C(=O)O[C@@H]1C [Daptomycin] | 1 µg/mL | 1 µg/mL | 2 µg/mL | 1 µg/mL | 1 µg/mL | 2 µg/mL | 1 µg/mL | 2 µg/mL | 2 µg/mL | 2 µg/mL | 1 µg/mL | 1 µg/mL | 1 µg/mL | 2 µg/mL | 2 µg/mL
CC(=O)NC[C@H]1CN(c2ccc(N3CCOCC3)c(F)c2)C(=O)O1 [Linezolid] | 4 µg/mL | 4 µg/mL | 4 µg/mL | 4 µg/mL | 4 µg/mL | 4 µg/mL | 4 µg/mL | 4 µg/mL | 4 µg/mL | 4 µg/mL | 4 µg/mL | 4 µg/mL | 4 µg/mL | 4 µg/mL | 4 µg/mL
CN[C@H](CC(C)C)C(=O)N[C@H]1C(=O)N[C@@H](CC(N)=O)C(=O)N[C@H]2C(=O)N[C@H]3C(=O)N[C@H](C(=O)N[C@H](C(=O)O)c4cc(O)cc(O)c4-c4cc3ccc4O)[C@H](O)c3ccc(c(Cl)c3)Oc3cc2cc(c3O[C@@H]2O[C@H](CO)[C@@H](O)[C@H](O)[C@H]2O[C@H]2C[C@](C)(N)[C@H](O)[C@H](C)O2)Oc2ccc(cc2Cl)[C@H]1O [Vancomycin] | 2 µg/mL | 2 µg/mL | 2 µg/mL | 2 µg/mL | 2 µg/mL | 4 µg/mL and 2 µg/mL | 2 µg/mL and 4 µg/mL | 2 µg/mL | 2 µg/mL | 2 µg/mL | 2 µg/mL | 1 µg/mL | 1 µg/mL | 2 µg/mL | 2 µg/mL
